PubChem BioAssay (NCI)
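Step 1: Grow cells in 96-well plates. Step 2: Expose to compound for 48 hours at 5 concentrations. Step 3: Interpolate endpoints linearly; if unreached, use highest concentration. At the TGI there is no net growth.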

What was measured:
Experiment in all cases: NCI tumour cell line growth inhibition, 48 h
SF-268 CNS = system: SF-268 CNS
NCI-H23 lung = system: NCI-H23 lung
HCT-116 colon = system: HCT-116 colon
IGROV1 ovarian = system: IGROV1 ovarian
RXF 393 renal = system: RXF 393 renal
NCI/ADR-RES ovarian = system: NCI/ADR-RES ovarian
HOP-18 NSCLC = system: HOP-18 NSCLC
HOP-62 NSCLC = system: HOP-62 NSCLC
SW-620 colon = system: SW-620 colon
EKVX NSCLC = system: EKVX NSCLC
OVCAR-8 ovarian = system: OVCAR-8 ovarian
XF 498 CNS = system: XF 498 CNS
SNB-78 CNS = system: SNB-78 CNS
SK-OV-3 ovarian = system: SK-OV-3 ovarian
U251 CNS = system: U251 CNS
A549 NSCLC = system: A549 NSCLC
786-0 renal = system: 786-0 renal
K-562 leukemia = system: K-562 leukemia
MCF7 breast = system: MCF7 breast
HS 578T breast = system: HS 578T breast
UO-31 renal = system: UO-31 renal
NCI-H522 lung = system: NCI-H522 lung
SN12C renal = system: SN12C renal
COLO 205 colon = system: COLO 205 colon
SNB-19 CNS = system: SNB-19 CNS
PC-3 prostate = system: PC-3 prostate
P388 leukemia = system: P388 leukemia
M19-MEL melanoma = system: M19-MEL melanoma
CCRF-CEM leukemia = system: CCRF-CEM leukemia
MOLT-4 leukemia = system: MOLT-4 leukemia
SK-MEL-2 melanoma = system: SK-MEL-2 melanoma
NCI-H226 lung = system: NCI-H226 lung
RPMI-8226 leukemia = system: RPMI-8226 leukemia
LOX IMVI melanoma = system: LOX IMVI melanoma
SN12K1 renal = system: SN12K1 renal
UACC-257 melanoma = system: UACC-257 melanoma
SF-539 CNS = system: SF-539 CNS
HOP-92 NSCLC = system: HOP-92 NSCLC
SR leukemia = system: SR leukemia
KM12 colon = system: KM12 colon
MALME-3M melanoma = system: MALME-3M melanoma
HCT-15 colon = system: HCT-15 colon
NCI-H460 lung = system: NCI-H460 lung
OVCAR-4 ovarian = system: OVCAR-4 ovarian
SNB-75 CNS = system: SNB-75 CNS
SK-MEL-28 melanoma = system: SK-MEL-28 melanoma
MDA-N = system: MDA-N
OVCAR-3 ovarian = system: OVCAR-3 ovarian
M14 melanoma = system: M14 melanoma
SF-295 CNS = system: SF-295 CNS
CAKI-1 renal = system: CAKI-1 renal
DLD-1 colon = system: DLD-1 colon
DMS 114 small cell lung = system: DMS 114 small cell lung
BT-549 breast = system: BT-549 breast
A498 renal = system: A498 renal
SK-MEL-5 melanoma = system: SK-MEL-5 melanoma
KM20L2 colon = system: KM20L2 colon
MDA-MB-231 breast = system: MDA-MB-231 breast
P388/ADR leukemia = system: P388/ADR leukemia
HL-60(TB) leukemia = system: HL-60(TB) leukemia
DU-145 prostate = system: DU-145 prostate
OVCAR-5 ovarian = system: OVCAR-5 ovarian
DMS 273 small cell lung = system: DMS 273 small cell lung
TK-10 renal = system: TK-10 renal
T-47D breast = system: T-47D breast
ACHN renal = system: ACHN renal
MDA-MB-435 = system: MDA-MB-435
UACC-62 melanoma = system: UACC-62 melanoma
HT29 colon = system: HT29 colon
HCC-2998 colon = system: HCC-2998 colon

Question: What does the source list for CCCCCCCCCCCCCCCCCCOCC(COP(=O)([O-])OCC[N+](C)(C)C)OC (stereo not given)?
Answer: TGI (SF-268 CNS): 51.8 µM; TGI (NCI-H23 lung): 61.6 µM; TGI (HCT-116 colon): 43.5 µM; TGI (IGROV1 ovarian): 18.7 µM; TGI (RXF 393 renal): 42.2 µM; TGI (NCI/ADR-RES ovarian): 64.1 µM; TGI (HOP-18 NSCLC): 27.5 µM; TGI (HOP-62 NSCLC): > 58.9 µM; TGI (SW-620 colon): 47.9 µM; TGI (EKVX NSCLC): 70.3 µM; TGI (OVCAR-8 ovarian): 57.7 µM; TGI (XF 498 CNS): 28.8 µM; TGI (SNB-78 CNS): 49.2 µM; TGI (SK-OV-3 ovarian): 46 µM; TGI (U251 CNS): 42.8 µM; TGI (A549 NSCLC): 49.3 µM; TGI (786-0 renal): > 71.7 µM; TGI (K-562 leukemia): 75.2 µM; TGI (MCF7 breast): > 54.3 µM; TGI (HS 578T breast): > 100 µM; TGI (UO-31 renal): 52.7 µM; TGI (NCI-H522 lung): 32.7 µM; TGI (SN12C renal): 34.6 µM; TGI (COLO 205 colon): 21.2 µM; TGI (SNB-19 CNS): 47.1 µM; TGI (PC-3 prostate): 57.2 µM; TGI (P388 leukemia): 11 µM; TGI (M19-MEL melanoma): 16.8 µM; TGI (CCRF-CEM leukemia): 28 µM; TGI (MOLT-4 leukemia): 29.3 µM; TGI (SK-MEL-2 melanoma): 54.9 µM; TGI (NCI-H226 lung): 44.7 µM; TGI (RPMI-8226 leukemia): 45.7 µM; TGI (LOX IMVI melanoma): 45 µM; TGI (SN12K1 renal): 24.3 µM; TGI (UACC-257 melanoma): 30.5 µM; TGI (SF-539 CNS): > 70.2 µM; TGI (HOP-92 NSCLC): 25.4 µM; TGI (SR leukemia): > 60.1 µM; TGI (KM12 colon): 10.4 µM; TGI (MALME-3M melanoma): 46.8 µM; TGI (HCT-15 colon): 11.3 µM; TGI (NCI-H460 lung): 17.6 µM; TGI (OVCAR-4 ovarian): > 52.6 µM; TGI (SNB-75 CNS): 37.2 µM; TGI (SK-MEL-28 melanoma): 57.9 µM; TGI (MDA-N): > 100 µM; TGI (OVCAR-3 ovarian): 54.5 µM; TGI (M14 melanoma): > 63.5 µM; TGI (SF-295 CNS): 29.7 µM; TGI (CAKI-1 renal): 44.3 µM; TGI (DLD-1 colon): 17.7 µM; TGI (DMS 114 small cell lung): 26.8 µM; TGI (BT-549 breast): > 100 µM; TGI (A498 renal): 45.8 µM; TGI (SK-MEL-5 melanoma): 62.9 µM; TGI (KM20L2 colon): 9.02 µM; TGI (MDA-MB-231 breast): > 100 µM; TGI (P388/ADR leukemia): 20 µM; TGI (HL-60(TB) leukemia): 13.6 µM; TGI (DU-145 prostate): > 100 µM; TGI (OVCAR-5 ovarian): 37 µM; TGI (DMS 273 small cell lung): 10.5 µM; TGI (TK-10 renal): 41.5 µM; TGI (T-47D breast): > 100 µM; TGI (ACHN renal): > 100 µM; TGI (MDA-MB-435): > 100 µM; TGI (UACC-62 melanoma): 47.1 µM; TGI (HT29 colon): 23.5 µM; TGI (HCC-2998 colon): 9.93 µM
